Experimental data as given in patent US8147801B2, “Methods of using alpha-methylglucoside (AMG) as an indicator for glucose absorption and excretion” (Janssen Pharmaceutica, N.V., priority 2009, dated 2012).

Key:
SGLT1 [1] = target: T1, SGLT1 (Homo sapiens, UniProt P13866); experiment: Cell-based 14C-AMG uptake inhibition assay, CHOK1 cells expressing human SGLT1; set-up: expressed in transfected cells; conditions: CHOK1 cells stably expressing human SGLT1, 0.5 mM 14C-AMG, 30 min uptake; read-out: hSGLT1 (IC50, nM) [A]
T1 sequence (P13866 1-664): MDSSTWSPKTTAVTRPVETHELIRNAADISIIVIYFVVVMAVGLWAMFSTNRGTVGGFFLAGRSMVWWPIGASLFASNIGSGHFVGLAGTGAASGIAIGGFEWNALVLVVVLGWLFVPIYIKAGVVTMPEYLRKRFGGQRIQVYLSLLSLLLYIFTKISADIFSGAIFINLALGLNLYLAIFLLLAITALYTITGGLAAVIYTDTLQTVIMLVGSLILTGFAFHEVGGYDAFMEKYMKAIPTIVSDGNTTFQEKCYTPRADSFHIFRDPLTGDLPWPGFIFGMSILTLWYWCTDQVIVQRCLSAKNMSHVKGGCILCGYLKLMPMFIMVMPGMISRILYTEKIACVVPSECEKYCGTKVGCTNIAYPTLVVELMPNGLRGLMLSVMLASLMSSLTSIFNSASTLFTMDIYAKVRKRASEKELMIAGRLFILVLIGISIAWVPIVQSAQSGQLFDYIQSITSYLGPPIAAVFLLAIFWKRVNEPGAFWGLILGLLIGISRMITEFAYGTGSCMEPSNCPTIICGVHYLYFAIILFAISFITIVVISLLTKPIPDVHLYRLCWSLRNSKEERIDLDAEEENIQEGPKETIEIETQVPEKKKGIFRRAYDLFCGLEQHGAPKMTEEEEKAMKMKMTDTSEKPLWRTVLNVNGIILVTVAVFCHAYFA
Procedure: (§1) Inhibition of SGLT activity with Compound 1 and Compound 2 was assessed in CHOK1 cells stably expressing either human SGLT1 or human SGLT2. Compound 1 and Compound 2, are described in U.S. Patent Application Nos. 2005/0233988 and 2008/0027122, the contents of which are incorporated by reference in their entirety.
CHOK1 cells expressing human SGLT2 or human SGLT1 were seeded in 24-well plates at a density of approximately 400,000 cells/well in F-12 nutrient mixture (Ham's F-12) containing 10% fetal bovine serum, 400 ug/ml Geneticin, 50 units/ml sodium penicillin G (Gibco-BRL) and 50 ug/ml streptomycin sulfate. Cells were maintained in culture for 2 days at 37° C. in a humidified atmosphere containing 5% CO2. On the day of the assay, Compound 1 and Compound 2 were dissolved in DMSO and then diluted in assay buffer. The final concentration of DMSO was 0.5%. Assay buffer contained 137 mM NaCl, 5 mM KCl, 1 mM CaCl2, 1 mM MgCl2, 50 mM Hepes, and 20 mM Tris, pH 7.4. To start the assay, cells were washed once with the assay buffer and then incubated with 250 ul of the assay buffer containing Compound 1 or Compound 2 for 10 min at 37° C. […] Cells were then solubilized with 0.3 N NaOH and aliquots were taken for determination of radioactivity by a liquid scintillation counter. […] Specific uptake was normalized for the protein concentrations measured by the method of Bradford. […]

[2] = tested on: Male Sprague-Dawley (SD) rats; experiment: Oral AMG test in rats: AMG measured by NMR in GI tract, plasma and urine after SGLT inhibitor dosing; type: in vivo, rat; conditions: for AMG content retained in the GI system / amount of AMG detected in plasma / amount of AMG detected in the urine: rats, compound 0.3 or 3.0 mg/kg oral, AMG 2 g/kg oral 1 h later; for AMG content retained in the GI system: FIG. 1A; for amount of AMG detected in plasma: FIG. 1B; for amount of AMG detected in the urine: FIG. 1C
Procedure: Male Sprague-Dawley (SD) rats were dosed by oral gavage with either vehicle, 0.5% methylcellulose (methocel) in sterile water, or one of the SGLT inhibitors (Compound 1 and Compound 2) at 0.3 or 3.0 mg/kg. Compounds were administered as a suspension in 0.5% methylcellulose and sterile water. One hour after dosing the animals with the compounds, AMG was administrated orally via gavage (2 g/kg). AMG was dissolved in sterile water. Rats were sacrificed 120 or 240 minutes after AMG administration. Urine and plasma samples were collected and the entire gastrointestinal tract was removed and placed into saline. Subsequently, a GI lysate was made. Aliquots were taken from the samples of plasma, urine and the GI lysate and were extracted with acetonitrile to precipitate protein. […] The aqueous portion was dried down and re-suspended in deuterated water to a volume of 0.5 ml.
Proton NMR spectra were acquired on a Bruker DMX 600 MHz NMR spectrometer (Bruker Biospin Corporation, Billerica, Mass.) with the probe temperature maintained at 32° C. The mildly elevated temperature was used to enhance the chemical shift separation between the solvent peak (the residual water in the sample) and the anomeric proton of AMG (a doublet at 4.80 ppm) which was used for quantification. The solvent peak was saturated using very low power irradiation (a field strength of about 4 Hz) during the pre-pulse delay followed by a 30° pulse to acquire the signal. The pre-pulse delay was 3.0 s and the acquisition time was 2.1 s. The sweep width was 13 ppm using 32 k complex points. Before fourier transformation the data was apodized with 0.5 Hz exponential linebroadening. The amount of AMG present in the sample was determined relative to an internal reference, DSS (2,2-dimethyl-2-silapentane-d6-sulfonic acid, sodim salt) at 0.00 ppm.

SGLT2 [3] = target: T2, SGLT2 (Homo sapiens, UniProt P31639); experiment: Cell-based 14C-AMG uptake inhibition assay, CHOK1 cells expressing human SGLT2; set-up: expressed in transfected cells; conditions: for IC50: CHOK1 cells stably expressing human SGLT2, 0.5 mM 14C-AMG, 30 min uptake, read-out: hSGLT2 (IC50, nM) [B]; for [A]/[B] (fold): ratio hSGLT1 IC50 / hSGLT2 IC50
T2 sequence (P31639 1-672): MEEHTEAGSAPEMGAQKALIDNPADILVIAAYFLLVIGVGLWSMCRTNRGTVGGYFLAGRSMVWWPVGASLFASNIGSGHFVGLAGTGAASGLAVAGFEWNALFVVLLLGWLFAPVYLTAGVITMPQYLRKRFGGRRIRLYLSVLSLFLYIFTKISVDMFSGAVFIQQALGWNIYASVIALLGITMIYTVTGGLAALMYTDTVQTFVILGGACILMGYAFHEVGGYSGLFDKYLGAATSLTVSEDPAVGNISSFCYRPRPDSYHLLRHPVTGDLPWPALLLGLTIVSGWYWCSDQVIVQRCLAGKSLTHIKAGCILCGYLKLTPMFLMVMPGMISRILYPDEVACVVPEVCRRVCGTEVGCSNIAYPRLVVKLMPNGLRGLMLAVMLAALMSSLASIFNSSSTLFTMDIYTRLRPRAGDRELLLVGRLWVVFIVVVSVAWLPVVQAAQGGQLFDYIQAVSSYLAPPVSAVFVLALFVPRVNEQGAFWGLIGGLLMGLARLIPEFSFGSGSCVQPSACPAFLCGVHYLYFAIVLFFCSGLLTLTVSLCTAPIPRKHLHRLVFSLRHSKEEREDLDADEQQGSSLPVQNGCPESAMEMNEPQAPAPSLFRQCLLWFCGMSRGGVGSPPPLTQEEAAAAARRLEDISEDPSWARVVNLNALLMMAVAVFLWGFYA
Procedure: as §1
CHOK1 cells expressing human SGLT2 or human SGLT1 were seeded in 24-well plates at a density of approximately 400,000 cells/well in F-12 nutrient mixture (Ham's F-12) containing 10% fetal bovine serum, 400 ug/ml Geneticin, 50 units/ml sodium penicillin G (Gibco-BRL) and 50 ug/ml streptomycin sulfate. Cells were maintained in culture for 2 days at 37° C. in a humidified atmosphere containing 5% CO2. On the day of the assay, Compound 1 and Compound 2 were dissolved in DMSO and then diluted in assay buffer. The final concentration of DMSO was 0.5%. Assay buffer contained 137 mM NaCl, 5 mM KCl, 1 mM CaCl2, 1 mM MgCl2, 50 mM Hepes, and 20 mM Tris, pH 7.4. To start the assay, cells were washed once with the assay buffer and then incubated with 250 ul of the assay buffer containing Compound 1 or Compound 2 for 10 min at 37° C. The transport reaction was initiated by addition of 50 ul ^14C-AMG solution (final concentration, 0.5 mM ^14C-AMG). After incubation for 30 minutes at 37° C., the uptake was stopped by aspiration of the incubation mixture and the cells were washed three times with ice-cold PBS. Cells were then solubilized with 0.3 N NaOH and aliquots were taken for determination of radioactivity by a liquid scintillation counter. Nonspecific AMG uptake was defined as that which occurred in the presence of 100 uM of phlorizin, a specific inhibitor of sodium-dependent glucose cotransporter. Specific uptake was normalized for the protein concentrations measured by the method of Bradford. The 50% inhibitory concentration (IC50) values were calculated from dose-response curves by least square method.

[4] = tested on: facilitated glucose transporters (GLUTs); conditions: cited from earlier work
[5] = tested on: rodent models of diabetes and one canine diabetes model; conditions: cited from earlier work
SGLT1 [6] = target: T1, SGLT1; conditions: literature value (Kanai et al. 1994; US 2008/0234367); cited from earlier work
SGLT2 [7] = target: T2, SGLT2; conditions: literature value (Kanai et al. 1994; US 2008/0234367); cited from earlier work
[8] = rodent models of diabetes and one canine diabetes model

| SMILES | IC50 (SGLT1 [1]) [nM] | AMG content retained in the GI system [2] | amount of AMG detected in plasma [2] | amount of AMG detected in the urine [2] | IC50 (SGLT2 [3]) [nM] | [A]/[B] (fold) (SGLT2 [3]) | other results |
| --- | --- | --- | --- | --- | --- | --- | --- |
| CCc1ccc(Cc2cn([C@@H]3O[C@H](CO)[C@@H](O)[C@H](O)[C@H]3O)c3ccccc23)cc1 [Compound 1] | 1700 | did not cause a significant retention | dose-dependent decreases | increase in the amount of AMG detected in the urine | 8.4 | 202 |  |
| O=C(CCc1ccc(O)cc1)c1c(O)cc(O)cc1O [phloretin] |  |  |  |  |  |  | inhibition of facilitated glucose transporters (GLUTs) [4]: potent inhibitor |
| O=C(CCc1ccc(O)cc1)c1c(O)cc(O)cc1O[C@@H]1O[C@H](CO)[C@@H](O)[C@H](O)[C@H]1O [phlorizin] |  |  |  |  |  |  | fasting and fed plasma glucose levels [5, 8]: lowered fasting and fed plasma glucose levels; glucose excretion [5, 8]: promoted glucose excretion; adverse effects on plasma ion balance, renal function or renal morphology ([5]; treatment for as long as two weeks): No adverse effects |
| OC[C@@H]1O[C@H](n2cc(Cc3ccc(C4CC4)cc3)c3c(F)cccc32)[C@@H](O)[C@H](O)[C@H]1O [Compound 2] | 270 | markedly increased at the higher dose | dose-dependent decreases | increased amount of AMG detected in the urine | 1.9 | 142 |  |
| CO[C@H]1O[C@H](CO)[C@@H](O)[C@H](O)[C@H]1O [AMG, Methyl-alpha-D-glucopyranoside] |  |  |  |  |  |  | Km (SGLT1 [6]): 400 µM; Km (SGLT2 [7]): 1600 µM; absorption of oral AMG in vehicle treated rats ([2]; AMG 2 g/kg oral gavage, vehicle treated rats, GI system, plasma and urine samples): absorbed from the GI system |
